# Measured values as given in US9556207B2, “Pyrazole compounds, compositions and methods for treatment of degenerative diseases and disorders” (MUSC FOUNDATION FOR RESEARCH DEVELOPMENT, priority 2013, dated 2017).
# Legend:
# 661W or C6 cells [1] = assay: XF FCCP-uncoupled oxygen consumption rate assay (IBMX challenge); assay type: cell-based; conditions: 24 h; for activity at 0.01 µM: 10 nM compound; for activity at 0.1 µM: 100 nM compound
# Description: XF FCCP-Uncoupled Oxygen Consumption Rate Assay
# The XF FCCP-uncoupled oxygen consumption rate assay assesses mitochondrial capacity by measuring cellular respiration. It was shown that the maximum FCCP-uncoupled oxygen consumption rate (OCR) was a good estimate of maximal mitochondrial capacity (Beeson 2010) and that IBMX treatment of 661W or C6 cells for 24 h caused a loss in maximal uncoupled OCR (Perron 2013). Thus, cells were pretreated with the exemplified compounds for 1 h, added 600 μM IBMX and then measured the uncoupled rate after 24 h. The OCR measurements were performed using a Seahorse Bioscience XF instrument (Seahorse Bioscience, Billerica, Md.), as previously published (Perron 2013). O2 leakage through the plastic sides and bottom of the plate was accounted for using the AKOS algorithm in the XF software package. Cells were plated on 96- or 24-well custom plates designed for use in the XF and grown to confluency in DMEM+5% FBS (48 h). The medium was then replaced with DMEM+1% FBS for 24 h, along with any treatments.
# [2] = system: Balb/c mice photoreceptors; assay: Light model assay (constant light damage, eyedrops); assay type: in vivo, mouse; conditions: 125 μM eyedrops once per day; continuous light 7 days; assessed 10 days after onset
# Source text: The light model assay is generally accepted as a model of age related macular degeneration (AMD). […] In particular, oxidative damage has been detected by immunohistochemistry, detecting the presence of oxidized and tyrosine-phosphorylated proteins as well as the upregulation of endogenous antioxidants such as thioredoxin and glutathione peroxidase. […] Additional indirect evidence for the involvement of oxidative stress in photoreceptor degeneration has been provided by treatment of photodamaged retinas with antioxidants such as dimethylthiourea, or the treatment of N-methyl-N-nitrosourea (MNU)-challenged rats with the antioxidant DHA.
# The light model assay was used to further test the therapeutic potential of the compounds of the invention. Photoreceptors from albino animals are very sensitive to constant light, lacking the RPE pigment to protect them. Thus, Balb/c mice were exposed to continuous light for 7 days, which caused loss of about 50% of the photoreceptor cells as measured via histology. To test the potential therapeutic efficacy, eyedrops were formulated in 0.1% Bij 35 in […], applied once or twice daily throughout the period of light exposure, and assessed their effect on the light-induced degeneration of photoreceptor cells morphologically and electrophysiologically, 10 days after the onset of the CL exposure.
# [3] = system: rd1 mouse retinal explants (photoreceptors); assay: Retinal degeneration assay (rd1 mouse retina organ cultures); assay type: cell-based; conditions: explants cultured 11 days, rows of photoreceptors in ONL
# Source text: Retinal Degeneration Assay
# It was reasoned that the compounds' activities would enable them to protect against loss of photoreceptors in retinal degenerative animal models. As a translational bridge between the cell line-based assays and in vivo animal studies, mouse retina organ cultures were utilized. These retinal explants were a powerful ex vivo screening tool, which allowed the testing of photoreceptor cell survival within the retinal network, and the effects of a specific compound were tested like in an in vitro system, without systemic interference. In this assay, the rd1 mouse was utilized. The genotype of the rd1 mouse has a mutation in the β-subunit of the phosphodiesterase gene. […] The genetic deficit and the retinal pathology were very similar to that observed in the patients with βPDE-dependent RP. In these mice, rod photoreceptor degeneration started after postnatal day 10 (P10), progressing rapidly, such that at P21, only 1-2 rows of photoreceptor remained, mainly representing cones. Finally, the rd1 mouse retina was amenable to culturing, replicating both retinal development and degeneration, following the same time course as in vivo. […] At the end of the experiments, tissues were fixed, sectioned and stained with 0.1% toluidine and the numbers of rows of photoreceptors remaining in the outer nuclear layer (ONL) were counted.
# 661W or C6 cells [4] = assay: MTT assay (protection against calcium-ionophore A23187); assay type: cell-based; conditions: for percent protection against ionophore-induced loss of MTT signal at 0.01 µM: 10 nM compound; for percent protection against ionophore-induced loss of MTT signal at 0.001 µM: 1 nM compound; for percent protection against ionophore-induced loss of MTT signal at 0.0008 µM: 800 pM compound
# Description: The compound 3-(4,5-Dimethylthiazol-2-yl)-2,5-diphenyltetrazolium bromide (MTT) is a tetrazolium ion that is reduced to a blue formazan dye via several families of NAD(P)H-dependent oxidoreductases. Formation of the formazan dye from MTT or other related tetrazolium dyes are commonly used as a viability assay even though, in fact, the assay is a metabolic capacity assay.
# In this assay, 661W or C6 cells were maintained in DMEM supplemented with 10% FBS. 100 μL of 70,000 cells/mL cells were seeded into each well of 96 well plates using DMEM supplemented with 5% FBS. Cells were then allowed to grow to confluency for 48 hours. The compounds of the invention were added in 2 μL media and calcium-ionophore A23187 was then added in 1 μL for a final concentration of 1 μM and after 24 h, 20 uL of 2 μg/mL MTT were added to each well and the cells were incubated for another 4 h after which 100 μL of 1% SDS in 0.01 M aqueous HCl were added to each well and the plates were incubated overnight. Absorbance was measured at […] (background correction). The 1 μM ionophore A23187 caused about 50% loss in MTT signal at 24 h. Protection was calculated as the increase in absorbance of treatment groups normalized to the vehicle control.
# [5] = 1 h pretreatment, 600 μM IBMX, read-out: XF FCCP OCR (% Ctrl, concentration)
# [6] = 1 μM A23187, 24 h, read-out: MTT Protection(%, concentration)
structure (smiles),measurement,setting,value
"CC(C)Cn1c(=O)n(C)c(=O)c2[nH]cnc21 [IBMX, reference compound]",decrease in the uncoupled rate (OCR),"661W or C6 cells [1]; IBMX treatment alone, 600 μM",~50%
"CCOC(=O)c1cc([Si](C)(C)C)nn1CC(=O)c1ccc(OC)cc1OC [Example 4, Ethyl 1-(2-(2,4-dimethoxyphenyl)-2-oxoethyl)-3-(trimethylsilyl)-1H-pyrazole-5-carboxylate]","LD Protection (concentration, # of rows)",[2],125 μM 6.42 # of rows
same,activity at 0.01 µM,661W or C6 cells [1]; [5],67%
same,"rd1 protection (concentration, # of rows)",[3]; 10 nM,10 nM 3.2 # of rows
same,percent protection against ionophore-induced loss of MTT signal at 0.01 µM,661W or C6 cells [4]; [6],87%
"CNc1ccc2oc(C[C@H]3O[C@@]4(CC[C@H]3C)O[C@H]([C@H](C)C(=O)c3ccc[nH]3)[C@H](C)C[C@H]4C)nc2c1C(=O)O [Example A23187, reference compound]",loss in MTT signal,"661W or C6 cells [4]; 1 μM ionophore alone, 24 h",about 50%
"CCOC(=O)c1cc([Si](C)(C)C)nn1Cc1cc(OC)c(OC)c(OC)c1 [Example 7, Ethyl 1-(3,4,5-trimethoxybenzyl)-3-(trimethylsilyl)-1H-pyrazole-5-carboxylate]",percent protection against ionophore-induced loss of MTT signal at 0.01 µM,661W or C6 cells [4]; [6],40%
"CCOC(=O)c1cc(C(C)C)nn1Cc1c[nH]c2ccccc12 [Example 12, Ethyl 1-((1H-indol-3-yl)methyl)-3-isopropyl-1H-pyrazole-5-carboxylate]",percent protection against ionophore-induced loss of MTT signal at 0.001 µM,661W or C6 cells [4]; [6],59.4%
"CCOC(=O)c1cc(-c2ccccn2)nn1CC(=O)c1cc(OC)ccc1OC [Example 11, Ethyl 1-(2-(2,5-dimethoxyphenyl)-2-oxoethyl)-3-(pyridin-2-yl)-1H-pyrazole-5-carboxylate]",percent protection against ionophore-induced loss of MTT signal at 1 µM,"661W or C6 cells [4]; 1 μM compound, 1 μM A23187, 24 h, read-out: MTT Protection(%, concentration)",28.3%
"CCOC(=O)c1cc(-c2ccccn2)nn1Cc1cccnc1 [Example 6, Ethyl 3-(pyridin-2-yl)-1-(pyridin-3-ylmethyl)-1H-pyrazole-5-carboxylate]",activity at 0.01 µM,661W or C6 cells [1]; [5],75%
same,percent protection against ionophore-induced loss of MTT signal at 0.01 µM,661W or C6 cells [4]; [6],73.5%
"CCOC(=O)c1cc(-c2cccnc2)nn1CC(=O)c1cc(OC)ccc1OC [Example 3, Ethyl 1-(2-(2,5-dimethoxyphenyl)-2-oxoethyl)-3-(pyridin-3-yl)-1H-pyrazole-5-carboxylate]",percent protection against ionophore-induced loss of MTT signal at 0.001 µM,661W or C6 cells [4]; [6],43.5%
"CCOC(=O)c1cc([Si](C)(C)C)n(CC(=O)c2cccnc2)n1 [Example 9, Ethyl 1-(2-oxo-2-(pyridin-3-yl)ethyl)-5-(trimethylsilyl)-1H-pyrazole-3-carboxylate]",activity at 0.1 µM,661W or C6 cells [1]; [5],67%
same,percent protection against ionophore-induced loss of MTT signal at 0.001 µM,661W or C6 cells [4]; [6],59%
"CCOC(=O)c1cc(-c2ccccn2)nn1CC(=O)c1ccc(OC)cc1OC [Example 1, Ethyl 1-(2-(2,4-dimethoxyphenyl)-2-oxoethyl)-3-(pyridin-2-yl)-1H-pyrazole-5-carboxylate]",activity at 1 µM,"661W or C6 cells [1]; 1 uM compound, 1 h pretreatment, 600 μM IBMX, read-out: XF FCCP OCR (% Ctrl, concentration)",58%
same,percent protection against ionophore-induced loss of MTT signal at 0.0008 µM,661W or C6 cells [4]; [6],10.4%
"CCOC(=O)c1cc(-c2cccnc2)nn1CC(=O)c1ccc(OC)cc1OC [Example 8, Ethyl 1-(2-(2,4-dimethoxyphenyl)-2-oxoethyl)-3-(pyridin-3-yl)-1H-pyrazole-5-carboxylate]",activity at 0.1 µM,661W or C6 cells [1]; [5],64%
same,percent protection against ionophore-induced loss of MTT signal at 0.001 µM,661W or C6 cells [4]; [6],75.6%
"CCOC(=O)c1cc([Si](C)(C)C)nn1CC(=O)c1cccnc1 [Example 10, Ethyl 1-(2-oxo-2-(pyridin-3-yl)ethyl)-3-(trimethylsilyl)-1H-pyrazole-5-carboxylate]",percent protection against ionophore-induced loss of MTT signal at 0.001 µM,661W or C6 cells [4]; [6],47.8%
"CCOC(=O)c1cc(-c2ccccn2)n(CC(=O)c2ccc(OC)cc2OC)n1 [Example 2, Ethyl 1-(2-(2,4-dimethoxyphenyl)-2-oxoethyl)-5-(pyridin-2-yl)-1H-pyrazole-3-carboxylate]",activity at 0.1 µM,661W or C6 cells [1]; [5],62%
same,"rd1 protection (concentration, # of rows)",[3]; 20 nM,20 nM 4.46 # of rows
same,percent protection against ionophore-induced loss of MTT signal at 0.0008 µM,661W or C6 cells [4]; [6],73.9%
"CCOC(=O)c1cc([Si](C)(C)C)nn1CC(=O)c1cc(OC)ccc1OC [Example 5, Ethyl 1-(2-(2,5-dimethoxyphenyl)-2-oxoethyl)-3-(trimethylsilyl)-1H-pyrazole-5-carboxylate]",activity at 0.01 µM,661W or C6 cells [1]; [5],72%
same,percent protection against ionophore-induced loss of MTT signal at 0.01 µM,661W or C6 cells [4]; [6],76.6%
